Patent US10934253B2, “Therapeutic compounds and methods” (UNIVERSITY OF TASMANIA, priority 2017, dated 2021)

Assays:
[1] = system: HepG2 cells; experiment: Acute ATP rescue assay (impaired mitochondrial function, rotenone); assay type: cell-based; settings: Homo sapiens, 1 h; HepG2; 1 μM quinones with rotenone 10 μM, 60 minutes, glucose-free DMEM; % ATP compared to untreated (no-rotenone) control
Protocol: HepG2 cells were seeded at a density of 5000 cells per well in a 96-well plate and incubated for 24 hours in DMEM with 0.3 g/l glucose, 10% FBS and Penicillin-Streptomycin-Glutamine. Cells were treated with 1 μM quinones in presence or absence of rotenone (10 μM), for 60 minutes in glucose-free DMEM ATP levels were quantified using luminescence from the ATP-dependent enzymatic oxidation of luciferin by luciferase. Cells were lysed in a volume of 40 μl (4 mM EDTA, 0.2% Triton X-100) for five minutes at room temperature (RT) on an orbital shaker at 200 rpm. […] Luminescence was quantified immediately using a multimode plate reader (Fluoroscan Ascent, Thermo Scientific). ATP levels were standardized to protein levels using a commercial BCA assay (Protein DC; BioRad) and changes were calculated as percentage relative to levels of DMSO-treated control cells. Data is expressed as % ATP compared to the untreated (no-rotenone) control.
Vitamin K, menadione and idebenone were used as comparative controls. DMSO was used as a control.

[2] = system: HepG2 cells; experiment: Rescue of cell viability in the presence of a mitochondrial inhibitor (rotenone 1 μM); assay type: cell-based; settings: Homo sapiens, HepG2
Protocol: (§1) Cytoprotection of HepG2 cells by naphthoquinones was quantified in the presence of the mitochondrial toxin, rotenone. Briefly, HepG2 cells were seeded in 96-well plates at 5000 cells/well in DMEM with 0.3 g/l glucose, 10% FBS and Penicillin-Streptomycin-Glutamine. After overnight incubation under standard conditions, cells were treated with the test compounds (10 μM) for 2 days before cells were challenged with 1 μM rotenone in the presence of 10 μM test compounds in Hank's balanced salt solution (HBSS) for 6 hours. This was followed by post-incubation for an additional 18 hours with only 10 μM test compounds in HBSS. For measurement of cell viability, cells were washed with 100 μL PBS twice and then lysed using 40 μL lysis solution (4 mM EDTA, 0.2% Triton X-100) for 5 min at room temperature (RT) on an orbital shaker at 200 rpm. Then 10 μL of the lysate was mixed with 90 μL of enzyme-substrate mixture (as described above) in a white 96 well plate and luminescence was measured immediately using a plate-reader (Fluoroscan Ascent, Thermo Scientific). The data is expressed as % viability compared to the untreated (no-rotenone) control.
The extent of protection of cellular viability against a rotenone challenge of representative compounds of Formula (I) is shown below in Table 5. Vitamin K, Menadione and Idebenone were used as comparative controls. DMSO was used as a control.

[3] = system: HepG2 cells; experiment: Cell viability in the presence of a mitochondrial inhibitor (rotenone 10 μM); assay type: cell-based; settings: Homo sapiens, HepG2, 48 h, read-out: CELL VIABILITY [%]
Protocol: as §1
The cytoprotective effects of representative compounds of Formula (I) were further examined in vitro in response to rotenone toxicity at (10 μM). […] Cells were treated with the representative compounds of Formula (I) compounds (10 μM) for 2 days before cells were challenged with 10 μM rotenone.
Vitamin K, Menadione and Idebenone were used as comparative controls.

[4] = system: DSS-induced colitis in C57BL/6 mice; experiment: Dextran sulfate sodium (DSS) induced colitis mouse model; assay type: in vivo; settings: 2.5% DSS 7 days, 200 mg/kg orally in food once daily, vs DSS controls
Protocol: FIGS. 8-11: Ulcerative Colitis mouse model following treatment with representative compound of Formula (I) (UTA77); FIG. 8: Body weight loss; FIG. 9: Stool consistency; FIG. 10: Bloody stools; FIG. 11: Disease activity index. […] UTA77 was formulated with food powder (200 mg/kg of body weight) which was orally administered once daily over a period of 7 days.
Body weight (refer to FIG. 8), stool consistency (refer to FIG. 9), blood content of stools (refer to FIG. 10), and general disease activity index (refer to FIG. 11) were all assessed following treatment with representative compound of Formula (I), UTA77.
Female C57BL/6 mice were used at 7-8 weeks of age having an average body weight≈17 g. Mice were divided randomly into three different groups: • 1. a healthy control group without DSS, • 2. a control group with DSS, • 3. a group treated with DSS and test compound (n=5 per group).
Body weight of mice were assessed daily over an initial acclimation period of one week (FIG. 8). All mice were non-fasting and had access to food and drinking water (autoclaved tap water) ad libitum. Representative compounds of Formula (I) were formulated with food powder (200 mg/kg of body weight) to produce individual portions that were placed into the cage once a day. Representative compounds of Formula (I) (20 mg/ml) were stirred overnight at 4° C. in 500 ml 0.5% carboxymethylcellulose (CMC) solution. To 37.5 ml of the CMC solution, 41.25 g sucrose, 371.25 g food powder and 0.5% CMC solution were mixed to prepare a food mash, which was aliquoted (2.2 g portions) in weighting trays and individually stored at −20° C. Colitis was induced by supplementing 2.5% w/v of dextran sulphate sodium (DSS, MW=36,000-50,000, colitis grade, MP Biomedicals, USA) in the drinking water of mice from day 0 to day 7 (day of termination). On day 0, all mice were weighed and checked for stool consistency and occult blood before they were exposed to DSS and test compounds. Control animals were only supplied with autoclaved drinking water without DSS, and normal chow pellets, while 2.5% DSS in tap water was provided to the DSS-treated groups from day 0 to day 7. All controls groups were also supplied with 2.2 g of food mash without test compounds. The animals of the drug-treated groups received 200 mg/kg of test compounds in food mash with 2.5% of DSS in water from day 0 to day 7. Body weight (refer to FIG. 8), stool consistency (refer to FIG. 9), blood content of stools (refer to FIG. 10) were recorded daily. The Disease Activity Index (DAI) (FIG. 11) was calculated according to scoring Table 9 below. Each parameter was scored independently and all three parameters were added to calculate the DAI.

COc1ccc(CCNC(=O)CCCC2=C(C)C(=O)c3ccccc3C2=O)cc1OC [UTA #77, N-(3,4-dimethoxyphenethyl)-4-(3-methyl-1,4-naphthoquinone-2-yl)butanamide]
activity at 1 µM [1]: 99.1% | viability at 10 µM [2]: 95.9% | viability at 10 µM [3]: 95.9% | Bloody stools (in words) [4]: reduction in bloody stools | Body weight loss (in words) [4]: less weight loss than DSS controls | Disease activity index (in words) [4]: reduced disease activity | Stool consistency (in words) [4]: improved stools
